Source: patent publication US10716771B2, “Pharmaceutical composition for preventing or treating immune diseases or inflammatory diseases, containing biguanide derivative compound as active ingredient” (THE CATHOLIC UNIVERSITY OF KOREA INDUSTRY-ACADEMIC …, priority 2013, dated 2020)

What was measured:
TNF-α = TNF-α sandwich ELISA, Example 8-3; format: cell-based, mouse; details: incubated supernatant
Description: (§1) In order to evaluate an arthritis therapeutic effect of the biguanide derivative compound of the present invention, in a rheumatoid arthritis animal model, cytotoxicity, generation of autoantibody, expression of inflammatory cytokines and regulatory T cells (Treg), and osteoclast differentiation were measured. Like Examples, metformin was used as a control group. In order to evaluate an effect of suppressing the expression of the inflammatory cytokine of the biguanide derivative compound of the present invention, the incubated supernatant was collected and the expression degrees of IL-17 and TNF-α of a mouse were examined by using a sandwich ELISA. […] of a monoclonal anti-IL-17 or anti-TNF-α was reacted in a 96-well plate at 4° C. overnight and then a non-specific binding was blocked by a blocking solution (1% BSA/PBST) after the reaction. An IL-17 or TNF-α recombinant was continuously diluted by 1/2 to be used as a standard, added with the cell-incubated supernatant, and reacted at room temperature for 2 hrs. Thereafter, biotinylated anti-IL-17 or anti-TNF-α was added and reacted at room temperature for 2 hrs, washed four times after the reaction, diluted with a diluted ExtraAvidin-alkaline phosphatase conjugate, and reacted at room temperature for 2 hrs. After the reaction, a PNPP/DEA was added and colored, and absorbance was measured at a wavelength of 405 nm.

IgG = IgG generation in lupus animal model; format: cell-based; details: compared with metformin
Description: In order to examine an effect of suppressing the generation of autoantibody of the biguanide derivative compound of the present invention, the incubated supernatant was collected and the IgG expression degree was examined by using an ELISA. A monoclonal anti-IgG was reacted at 4° C. overnight in a 96-well plate and then a non-specific binding was blocked by a blocking solution. A mouse control serum was continuously diluted by 1/2 to be used as a standard, added with the cell-incubated supernatant, and reacted at room temperature for 2 hrs. Thereafter, HRP-anti-IgG was reacted at room temperature for 2 hrs, washed four times after reaction, added with the diluted HRP-conjugate, and reacted at room temperature for 2 hrs.
(§2) In order to evaluate a lupus therapeutic effect of the biguanide derivative compound of the present invention, in a lupus animal model, cytotoxicity, autoantibody generation, generation of inflammatory cytokines, and Th17 regulation were measured by the same method as Example 8.

[1] = Cytotoxicity (MTT) in rheumatoid arthritis disease model with metabolic syndrome; format: cell-based
Description: (§3) In order to examine cytotoxicity of the biguanide derivative compound of the present invention, an MTT assay was performed. Cells were isolated from the spleen in a normal mouse group and the isolated cells were incubated for 3 days in the concentration of 0.5 μg/ml of anti-CD3 or 100 ng/ml of LPS 100, and metformin, SD-196, SD-216 or SD-217 was treated for each concentration and incubated for 3 days.
(§4) Further, the incubated cells were analyzed by flow cytometry using anti-CD4-percp and anti-IL-17-Pe fluorescent antibodies, and as a result, it was verified that SD-196, 216 and 217 suppressed the activity of Th17 and simultaneously activated the expression of the regulatory T cells (Treg) (see FIG. 13).

Th17 [2] = assay: Th17 activity in lupus animal model; format: cell-based
Description: as §4, §2

[3] = Cytotoxicity (MTT) in lupus animal model; format: cell-based
Description: as §3, with “days. […] In order to evaluate a lupus therapeutic effect of the biguanide derivative compound of the present invention, in a lupus animal model, cytotoxicity, autoantibody generation, generation of inflammatory cytokines, and Th17 regulation were measured by the same method as Example 8.” for “days.”

IL-17 = IL-17 expression in rheumatoid arthritis disease model with metabolic syndrome; format: cell-based
Description: as §1, with “In” for “In order to evaluate an arthritis therapeutic effect of the biguanide derivative compound of the present invention, in a rheumatoid arthritis animal model, cytotoxicity, generation of autoantibody, expression of inflammatory cytokines and regulatory T cells (Treg), and osteoclast differentiation were measured. Like Examples, metformin was used as a control group. In”
as §4

[4] = test system: regulatory T cells (Treg); assay: Regulatory T cell (Treg) expression in rheumatoid arthritis disease model with metabolic syndrome; format: cell-based
Description: Further, in order to examine whether the biguanide derivative compound of the present invention activates the expression of regulatory T cells (Treg), the incubated cells were flow-cytometry by using anti-CD4-percp, anti-CD25-APC, and anti Foxp3-Pe fluorescent antibodies (ab), and as a result, it was verified that SD-196, 216 and 217 activated the Foxp3+ Treg cells (see FIG. 10).
as §4

osteoclast = assay: Osteoclast differentiation, TRAP staining; format: cell-based, mouse; details: bone marrow of arthritis animal model, MCSF 10 ng/ml and RANKL 50 ng/ml
Description: In order to verify whether the biguanide derivative compound of the present invention suppresses the osteoclast differentiation, while a bone marrow extracted from a leg in an arthritis animal model was treated with MCSF (10 ng/ml) and RANKL (50 ng/ml) to differentiate the osteoclast, metformin, SD-196, SD-216, and SD-217 were treated, respectively, and the differentiation degrees of the osteoclast were evaluated. The evaluation was performed by using TRAP straining.

[5] = test system: cells isolated from the spleen; assay: Cytotoxicity MTT assay, Example 8-1 (rheumatoid arthritis evaluation); format: cell-based; details: mouse spleen cells, anti-CD3 0.5 μg/ml or LPS 100 ng/ml, 3 days
Description: as §3, with “In order to evaluate an arthritis therapeutic effect of the biguanide derivative compound of the present invention, in a rheumatoid arthritis animal model, cytotoxicity, generation of autoantibody, expression of inflammatory cytokines and regulatory T cells (Treg), and osteoclast differentiation were measured. Like Examples, metformin was used as a control group. In” for “In”

Th17 [6] = assay: Th17 activity by flow cytometry in rheumatoid arthritis disease model with metabolic syndrome; format: cell-based; details: flow cytometry anti-CD4, anti-IL-17
Description: as §4

SMILES | TNF-α inflammatory cytokine expression (TNF-α) | expression of IgG (IgG) | cytotoxicity [1] | activity of Th17 (Th17 [2]) | cytotoxicity [3] | expression of IL-17 (IL-17) | expression of the regulatory T cells (Treg) [4] | differentiation of the osteoclast (osteoclast) | cytotoxicity (MTT assay) [5] | activity of Th17 (Th17 [6])
CC(C)NC(=N)NC(=N)N [SD-000196, 1-isopropylbiguanide] | significantly suppressed | significantly suppressed | did not have the cytotoxicity | suppressed | no cytotoxicity | suppressed | activated | significantly suppress | no cytotoxicity | suppressed
N=C(N)NC(=N)Nc1ccc(F)cc1F [SD-000217, 1-(2,4-difluorophenyl)biguanide] | significantly suppressed | significantly suppressed | did not have the cytotoxicity | suppressed | no cytotoxicity | suppressed | activated | significantly suppress | no cytotoxicity | suppressed
NC(N)=N/C(N)=N/c1cccc(F)c1 [SD-000216, 1-(3-fluorophenyl)biguanide] | significantly suppressed | significantly suppressed | did not have the cytotoxicity | suppressed | no cytotoxicity | suppressed | activated | significantly suppress | no cytotoxicity | suppressed
